Source: PubChem BioAssay (NCI)
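1) Cells in 96-well plates. 2) Compound, 48 h, 5 concentrations. 3) Linear interpolation between surrounding doses. 4) Unreached endpoint = highest concentration. GI50 is the concentration that inhibits growth by half. The concentration for full growth arrest is given as TGI.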

How the values were obtained:
Test in all cases: growth of human tumour cells (NCI), 48 h
[1] = test system: COLO 205 colon
[2] = test system: HCC-2998 colon
[3] = test system: HCT-15 colon
[4] = test system: HL-60(TB) leukemia
[5] = test system: NCI-H460 lung
[6] = test system: OVCAR-5 ovarian
[7] = test system: RXF 393 renal
[8] = test system: SF-295 CNS
[9] = test system: SN12C renal
[10] = test system: LOX IMVI melanoma

| Compound | GI50 [1] [nM] | TGI [1] [µM] | GI50 [2] [nM] | TGI [2] [µM] | GI50 [3] [nM] | TGI [3] [µM] | GI50 [4] [nM] | TGI [4] [µM] | GI50 [5] [nM] | TGI [5] [µM] | GI50 [6] [nM] | TGI [6] [µM] | GI50 [7] [nM] | TGI [7] [µM] | GI50 [8] [nM] | TGI [8] [µM] | GI50 [9] [nM] | TGI [9] [µM] | TGI [10] [µM] |
| --- | --- | --- | --- | --- | --- | --- | --- | --- | --- | --- | --- | --- | --- | --- | --- | --- | --- | --- | --- |
| CCCC(C)c1ccc(OCCCCCCN2CCNCC2)cc1 (centres undefined) | 1650 | 3.42 | 1840 | 3.28 | 1880 | 3.77 | 1750 | 3.54 | 1650 | 3.39 | 2730 | 7.9 | 1550 | 3 | 1820 | 3.44 | 2840 | 9.66 |  |
| O=C1C=C(C2OC(CO)C(O)C2O)C(=O)N1 (centres undefined) |  | > 100 |  | > 100 |  | > 100 |  | > 100 |  | > 100 |  | > 100 |  | > 100 |  | > 100 |  | > 100 | > 100 |
| CN(C)CCNC(=O)c1cccc2c(=O)c3ccccc3oc12 |  | 19.4 |  | > 100 |  | > 100 |  | > 90.6 |  | > 79.5 |  | > 82.9 |  | > 100 |  | 98.9 |  | > 78.7 | 43.4 |
| O=C(c1ccccc1)c1ccc2n[se]nc2c1 |  | 84.1 |  | 73.7 |  | > 100 |  | 25.9 |  |  |  | > 100 |  | > 100 |  | 37 |  | > 100 | > 100 |
| CC(=O)C(C(c1ccccc1)N1CCOCC1)N1CCOCC1 (centres undefined) |  | > 100 |  | 35.8 |  | > 100 |  | > 100 |  | 36.3 |  | > 100 |  | > 100 |  | > 100 |  | > 100 | > 100 |
| CCOP(=Nc1ccc(N(C)C)cc1)(OCC)OCC |  | > 100 |  | > 100 |  | > 100 |  |  |  | > 100 |  | > 100 |  | > 100 |  | > 100 |  |  |  |
| CC1=C2C(O)C(C(C)C(=O)N(C)C)CCC2(C)C=CC1=O (centres undefined) |  | > 100 |  | > 100 |  | > 100 |  | > 100 |  | > 100 |  | > 100 |  | > 100 |  | > 100 |  | > 100 | > 100 |
| Cc1ccc(S(=O)(=O)Nc2cccc3c(=O)[nH]cnc23)cc1 |  | > 100 |  | > 100 |  | > 100 |  | > 100 |  | > 100 |  | > 100 |  | > 100 |  | > 100 |  | > 100 | > 100 |
